The values below are quoted from earlier work in patent US9221758B2, “Methods of synthesizing pharmaceutical salts of a factor Xa inhibitor” (Millennium Pharmaceuticals, Inc., priority 2006, dated 2015).

The conditions of series [1]: statement in words, information in US2007/0112039.
The target of another series is Factor Xa (Homo sapiens, UniProt P00742). Conditions: statement in words, as discussed in U.S. Pat. No. 6,376,515.

Read-outs that look alike come from different tables or passages of the source.

Factor Xa, sequence (P00742 235-488 limits assumed): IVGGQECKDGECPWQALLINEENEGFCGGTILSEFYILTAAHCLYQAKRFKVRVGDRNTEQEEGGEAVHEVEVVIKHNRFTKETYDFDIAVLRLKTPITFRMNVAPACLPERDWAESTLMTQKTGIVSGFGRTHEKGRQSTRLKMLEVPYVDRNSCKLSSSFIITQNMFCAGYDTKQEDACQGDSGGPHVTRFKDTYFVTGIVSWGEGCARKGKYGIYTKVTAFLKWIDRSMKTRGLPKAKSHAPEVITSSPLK
Factor Xa, sequence (P00742 41-179 partner limits assumed): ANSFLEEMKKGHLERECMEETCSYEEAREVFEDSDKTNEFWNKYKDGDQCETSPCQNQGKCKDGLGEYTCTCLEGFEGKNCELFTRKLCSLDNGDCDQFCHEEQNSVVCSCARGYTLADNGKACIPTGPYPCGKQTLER

For `COc1ccc(NC(=O)c2ccc(C(=N)N(C)C)cc2)c(C(=O)Nc2ccc(Cl)cn2)c1`, the “thermal and hydrolytic stability” value in series [1] was “excellent”; in series [1] (listed as maleate salt), “best thermal and hydrolytic stability observed”. Turning to `COc1ccc(NC(=O)c2ccc(C(=N)N(C)C)cc2)c(C(=O)Nc2ccc(Cl)cn2)c1` [compound of Formula I], at Factor Xa, the Xa inhibitor potency entry is “potent Xa inhibitor”.
